Laboratory results: PubChem BioAssay AID2060601 (Molecular Pharmacology Branch, DTP, NCI, 2025)
“And” between values parts separate entries of the source, which are not always exact repeats. Identical values can stand only once.

Tested on: 874868-142-R-J2-PDC complex spheroids, growth % test/control
Test: Anticancer human tumor 874868-142-R-J2-PDC patient-derived head and neck squamous carcinoma cell line growth inhibition [CLK]
Conditions: for viability, T/C: stronger effect = lower value
Outline: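 Multi-cell-type spheroids combined patient-derived tumor cells with HUVEC endothelial cells and human mesenchymal stem cells. Paired agents were dosed in half-log steps down from about clinical Cmax, or from 10 microM where Cmax was unknown.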

[1] = curve of first compound, second compound 0.0316 µM
[2] = curve of first compound, second compound 0.1 µM
[3] = curve of first compound, second compound 0.316 µM
[4] = curve of first compound, second compound 1 µM
[5] = curve of first compound, second compound 3.16 µM
[6] = curve of first compound, second compound 10 µM
[7] = second compound 0.0316 µM, first compound 0.0316 µM
[8] = second compound 0.0316 µM, first compound 0.1 µM
[9] = second compound 0.0316 µM, first compound 0.316 µM
[10] = second compound 0.0316 µM, first compound 1 µM
[11] = second compound 0.1 µM, first compound 0.0316 µM
[12] = second compound 0.1 µM, first compound 0.1 µM
[13] = second compound 0.1 µM, first compound 0.316 µM
[14] = second compound 0.1 µM, first compound 1 µM
[15] = second compound 0.316 µM, first compound 0.0316 µM
[16] = second compound 0.316 µM, first compound 0.1 µM
[17] = second compound 0.316 µM, first compound 0.316 µM
[18] = second compound 0.316 µM, first compound 1 µM
[19] = second compound 1 µM, first compound 0.0316 µM
[20] = second compound 1 µM, first compound 0.1 µM
[21] = second compound 1 µM, first compound 0.316 µM
[22] = second compound 1 µM, first compound 1 µM
[23] = second compound 3.16 µM, first compound 0.0316 µM
[24] = second compound 3.16 µM, first compound 0.1 µM
[25] = second compound 3.16 µM, first compound 0.316 µM
[26] = second compound 3.16 µM, first compound 1 µM
[27] = second compound 10 µM, first compound 0.0316 µM
[28] = second compound 10 µM, first compound 0.1 µM
[29] = second compound 10 µM, first compound 0.316 µM
[30] = second compound 10 µM, first compound 1 µM
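Note: spheroids exposed to the compounds for 7 days.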
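Throughout, for viability, T/C: 100% = DMSO vehicle control viability.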

CC1COCCN1c1cc(C2(S(C)(=N)=O)CC2)nc(-c2ccnc3[nH]ccc23)n1 (stereo not drawn) + CNC(=O)c1ccc(Nc2nc(OC3CCCC3)c3c(-c4ccc5nc(C)oc5c4)c[nH]c3n2)c(OC)c1
IC50 [1]: 5960 nM | IC50 [2]: 2860 nM | IC50 [3]: 404 nM | IC50 [4]: < 31.6 nM | IC50 [5]: < 31.6 nM | IC50 [6]: < 31.6 nM | viability, T/C [7]: 125% | viability, T/C [8]: 96.2% | viability, T/C [9]: 91.9% | viability, T/C [10]: 69.8% | viability, T/C (second compound 0.0316 µM, first compound 3.16 µM): 53.9% | viability, T/C (second compound 0.0316 µM, first compound 10 µM): 45.9% | viability, T/C [11]: 101% | viability, T/C [12]: 79.1% | viability, T/C [13]: 73.1% | viability, T/C [14]: 55% | viability, T/C (second compound 0.1 µM, first compound 3.16 µM): 54.8% | viability, T/C (second compound 0.1 µM, first compound 10 µM): 39% | viability, T/C [15]: 51.2% | viability, T/C [16]: 53.8% | viability, T/C [17]: 53% | viability, T/C [18]: 40.2% | viability, T/C (second compound 0.316 µM, first compound 3.16 µM): 37.7% | viability, T/C (second compound 0.316 µM, first compound 10 µM): 35.6% | viability, T/C [19]: 44.7% | viability, T/C [20]: 47.6% | viability, T/C [21]: 50.8% | viability, T/C [22]: 35% | viability, T/C (second compound 1 µM, first compound 3.16 µM): 21.8% | viability, T/C (second compound 1 µM, first compound 10 µM): 23.1% | viability, T/C [23]: 42.5% | viability, T/C [24]: 46.5% | viability, T/C [25]: 44.4% | viability, T/C [26]: 34.9% | viability, T/C (second compound 3.16 µM, first compound 3.16 µM): 34.6% | viability, T/C (second compound 3.16 µM, first compound 10 µM): 27.8% | viability, T/C [27]: 44.1% | viability, T/C [28]: 37.9% | viability, T/C [29]: 41.7% | viability, T/C [30]: 29.6% | viability, T/C (second compound 10 µM, first compound 3.16 µM): 26.6% | viability, T/C (second compound 10 µM, first compound 10 µM): 17.2%

CCc1c2c(nc3ccc(O)cc13)-c1cc3c(c(=O)n1C2)COC(=O)[C@]3(O)CC + CN1CCN(c2cc(C(=O)Nc3cc4cc(-c5cnn(C)c5)ccc4cn3)ccn2)CC1
IC50 [1]: < 3.16 nM | IC50 [2]: < 3.16 nM | IC50 [3]: < 3.16 nM | IC50 [4]: < 3.16 nM | IC50 [5]: < 3.16 nM | IC50 [6]: < 3.16 nM | viability, T/C (second compound 0.0316 µM, first compound 0.00316 µM): 40.3% | viability, T/C (second compound 0.0316 µM, first compound 0.01 µM): 37.1% | viability, T/C [7]: 26.8% | viability, T/C [8]: 16.6% | viability, T/C [9]: 7.13% | viability, T/C [10]: 1.61% | viability, T/C (second compound 0.1 µM, first compound 0.00316 µM): 31.4% | viability, T/C (second compound 0.1 µM, first compound 0.01 µM): 24.2% | viability, T/C [11]: 11.6% | viability, T/C [12]: 8.69% | viability, T/C [13]: 2.29% | viability, T/C [14]: 0.34% | viability, T/C (second compound 0.316 µM, first compound 0.00316 µM): 12.2% | viability, T/C (second compound 0.316 µM, first compound 0.01 µM): 7.89% | viability, T/C [15]: 5.11% | viability, T/C [16]: 1.25% | viability, T/C [17]: 0.46% | viability, T/C [18]: 0.22% | viability, T/C (second compound 1 µM, first compound 0.00316 µM): 0.28% | viability, T/C (second compound 1 µM, first compound 0.01 µM): 0.16% | viability, T/C [19]: 0.25% | viability, T/C [20]: 0.19% | viability, T/C [21]: 0.39% | viability, T/C [22]: 0.11% | viability, T/C (second compound 3.16 µM, first compound 0.00316 µM): 0.18% | viability, T/C (second compound 3.16 µM, first compound 0.01 µM): 0.16% | viability, T/C [23]: 0.32% | viability, T/C [24]: 0.27% | viability, T/C [25]: 0.19% | viability, T/C [26]: 0.11% | viability, T/C (second compound 10 µM, first compound 0.00316 µM): 0.07% | viability, T/C (second compound 10 µM, first compound 0.01 µM): 3.98% | viability, T/C [27]: 0.4% | viability, T/C [28]: 0.15% | viability, T/C [29]: 0.19% | viability, T/C [30]: 0.19%

CC(C)CC(NC(=O)C(Cc1ccccc1)NC(=O)c1cnccn1)B(O)O (stereo not drawn)
viability, T/C (compound 0.000949 µM): 102% and 92.4% | viability, T/C (compound 0.003 µM): 112% and 103% | viability, T/C (compound 0.00949 µM): 20.4% and 5.73% | viability, T/C (compound 0.03 µM): 3.18% and 1.36% | viability, T/C (compound 0.0949 µM): 0.29% and 1.25% | viability, T/C (compound 0.3 µM): 0.24% and 4.02% | IC50 (curve of compound): 6.41 nM and 5.45 nM

CC(CO)NC(=O)c1cc(-c2ccc(Cl)cc2)nn(-c2cnn(C)c2)c1=O (stereo not drawn)
viability, T/C (compound 0.0316 µM): 102% and 93.8% | viability, T/C (compound 0.1 µM): 95.6% and 100% | viability, T/C (compound 0.316 µM): 97.7% and 89.3% | viability, T/C (compound 1 µM): 101% and 94.3% | viability, T/C (compound 3.16 µM): 102% and 94.3% | viability, T/C (compound 10 µM): 95.6% and 99.3% | IC50 (curve of compound): > 10000 nM
